Results reported in patent publication US20100061928A1, “LABELLED ANALOGUES OF HALOBENZAMIDES AS RADIOPHARMACEUTICALS” (Institut National De La Sante et De La Recherche Medicale …, priority 2006, published 2010).
Where a name gives a salt, the structure may show the parent alone. Blank lines part the entries; values can stand above or below the compound they belong to.

Columns and labels:
[1] = Elimination of the molecules: cumulative urinary and faecal excretion 0-72 hours; type: in vivo, mouse; conditions: for Faecal elimination 0-72 hours (Faeces) / Urinary and faecal elimination 0-72 hours (Total) / Urinary elimination 0-72 hours (Urine): cumulative excretion 0-72 hours; for Faecal elimination 0-72 hours (Faeces) / Urinary elimination 0-72 hours (Urine): mice in metabolic cages; for Urinary and faecal elimination 0-72 hours (Total): urine + faeces
tumour = experiment: Dosimetry with regard to the tumour (MIRD programme, extrapolated to ^131I); conditions: for Effective period: extrapolated to 131I labelling; for Biological period: from biodistribution data
[2] = tested on: grafted B16 F0 murine melanoma tumour; experiment: Biodistribution of the ^125I-labelled molecules in the melanoma-bearing mouse (autoradiography of whole-body sections); conditions: for Biodistribution, Mean, B 16: B 16 tumour
Method: The distribution of the radioactivity of the various compounds in the body (tumour and other organs) is quantified using an Ambis 4000 image analyzer on sections of whole animals. […] All the in vivo experimentation is carried out within the context defined by French legislation relating to animal experimentation.
The B16 F0 melanoma cells are provided by the ATCC and cultured in monolayers in culture medium (MEM, Invitrogen) supplemented with 10% foetal calf serum and antibiotics. The cultures are maintained by subculturing after trypsinization. The cells of the first passages are frozen and stored in liquid nitrogen. For the transplanting, the cells in culture at confluence are detached by trypsinization and washed with phosphate buffer (PBS).
The distribution of the radioactivity present in the sections is analyzed using an AMBIS 4000 analyzer (Scanalytics, CSPI, San Diego, Calif.), which is a proportional counter with a multiwire chamber validated and calibrated beforehand for the monitoring of iodine in the mouse. The measurements require acquisition times of 1000 minutes. […] The value of radioactivity per unit of surface area (cpm/mm^2) is converted to concentration (kBq/g) and expressed as percentage of the injected dose/g of tissue (% ID/g).

Faecal elimination 0-72 hours (Faeces) [1]: 69.2% | Urinary and faecal elimination 0-72 hours (Total) [1]: 93.0% | Urinary elimination 0-72 hours (Urine) [1]: 23.8% | elimination route (in words) ([1]; urinary versus faecal, 0-72 hours): faecal route predominates | Effective period (tumour): 49.4 h | Biological period (tumour): 66.3 hours | Biodistribution, Mean, B 16 ([2]; 1 H): 4.69 | Biodistribution, Mean, B 16 ([2]; 3 H): 4.05 | Biodistribution, Mean, B 16 ([2]; 6 H): 5.81 | Biodistribution, Mean, B 16 ([2]; 24 H): 2.74 | Biodistribution, Mean, B 16 ([2]; 72 H): 2.35 | Biodistribution, Mean, Ic ([2]; 1 H): 52.94 | Biodistribution, Mean, Ic ([2]; 3 H): 90.12 | Biodistribution, Mean, Ic ([2]; 6 H): 61.06 | Biodistribution, Mean, Ic ([2]; 24 H): 1.62 | Biodistribution, Mean, Ic ([2]; 72 H): 0.70 | Biodistribution, Mean, Sc ([2]; 1 H): 12.74 | Biodistribution, Mean, Sc ([2]; 3 H): 9.93 | Biodistribution, Mean, Sc ([2]; 6 H): 22.27 | Biodistribution, Mean, Sc ([2]; 24 H): 0.13 | Biodistribution, Mean, blood ([2]; 1 H): 0.42 | Biodistribution, Mean, blood ([2]; 3 H): 0.23 | Biodistribution, Mean, blood ([2]; 6 H): 0.17 | Biodistribution, Mean, blood ([2]; 24 H): 0.22 | Biodistribution, Mean, brain ([2]; 1 H): 0.07 | Biodistribution, Mean, brain ([2]; 6 H): 0.08 | Biodistribution, Mean, brain ([2]; 24 H): 0.04 | Biodistribution, Mean, brain ([2]; 72 H): 0.10 | Biodistribution, Mean, kidney ([2]; 1 H): 2.80 | Biodistribution, Mean, kidney ([2]; 3 H): 0.80 | Biodistribution, Mean, kidney ([2]; 6 H): 0.20 | Biodistribution, Mean, kidney ([2]; 24 H): 0.03 | Biodistribution, Mean, liver ([2]; 1 H): 5.16 | Biodistribution, Mean, liver ([2]; 3 H): 1.84 | Biodistribution, Mean, liver ([2]; 6 H): 0.32 | Biodistribution, Mean, liver ([2]; 24 H): 0.07 | Biodistribution, Mean, lungs ([2]; 1 H): 2.06 | Biodistribution, Mean, lungs ([2]; 3 H): 0.88 | Biodistribution, Mean, lungs ([2]; 6 H): 0.15 | Biodistribution, Mean, lungs ([2]; 24 H): 0.04 | Biodistribution, Mean, muscle ([2]; 1 H): 0.92 | Biodistribution, Mean, muscle ([2]; 3 H): 0.13 | Biodistribution, Mean, muscle ([2]; 6 H): 0.01 | Biodistribution, Mean, pancreas ([2]; 1 H): 5.74 | Biodistribution, Mean, pancreas ([2]; 3 H): 0.96 | Biodistribution, Mean, pancreas ([2]; 6 H): 1.08 | Biodistribution, Mean, spleen ([2]; 1 H): 1.24 | Biodistribution, Mean, spleen ([2]; 3 H): 0.28 | Biodistribution, Mean, spleen ([2]; 6 H): 0.26 | Biodistribution, Mean, spleen ([2]; 24 H): 0.15 | Biodistribution, Mean, thyroid ([2]; 3 H): 4.33 | Biodistribution, Mean, thyroid ([2]; 6 H): 8.55 | Biodistribution, Mean, thyroid ([2]; 24 H): 5.09 | Biodistribution, Mean, thyroid ([2]; 72 H): 9.83 | Biodistribution, Mean, uvea ([2]; 1 H): 5.12 | Biodistribution, Mean, uvea ([2]; 3 H): 5.66 | Biodistribution, Mean, uvea ([2]; 6 H): 5.18 | Biodistribution, Mean, uvea ([2]; 24 H): 3.5 | Biodistribution, Mean, uvea ([2]; 72 H): 6.79
Compound: CCN(CC)CCNC(=O)c1c[nH]c2ccc(I)cc2c1=O [compound 35, N-(2-diethylaminoethyl)-1,4-dihydro-6-iodo-4-oxoquinoline-3-carboxamide dihydrochloride]

Faecal elimination 0-72 hours (Faeces) [1]: 21.2% | Urinary and faecal elimination 0-72 hours (Total) [1]: 71.1% | Urinary elimination 0-72 hours (Urine) [1]: 49.9% | Effective period (tumour): 43.6 h | Biological period (tumour): 56.3 hours | Biodistribution, Mean, B 16 ([2]; 1 H): 7.27 | Biodistribution, Mean, B 16 ([2]; 3 H): 7.12 | Biodistribution, Mean, B 16 ([2]; 6 H): 7.92 | Biodistribution, Mean, B 16 ([2]; 24 H): 7.05 | Biodistribution, Mean, B 16 ([2]; 72 H): 3.13 | Biodistribution, Mean, Ic ([2]; 1 H): 42.97 | Biodistribution, Mean, Ic ([2]; 3 H): 68.64 | Biodistribution, Mean, Ic ([2]; 6 H): 29.16 | Biodistribution, Mean, Ic ([2]; 24 H): 1.70 | Biodistribution, Mean, Sc ([2]; 1 H): 23.01 | Biodistribution, Mean, Sc ([2]; 3 H): 19.05 | Biodistribution, Mean, Sc ([2]; 6 H): 28.44 | Biodistribution, Mean, Sc ([2]; 24 H): 0.75 | Biodistribution, Mean, blood ([2]; 1 H): 2.15 | Biodistribution, Mean, blood ([2]; 3 H): 2.65 | Biodistribution, Mean, blood ([2]; 6 H): 2.17 | Biodistribution, Mean, brain ([2]; 1 H): 0.30 | Biodistribution, Mean, brain ([2]; 3 H): 0.09 | Biodistribution, Mean, kidney ([2]; 1 H): 4.62 | Biodistribution, Mean, kidney ([2]; 3 H): 2.66 | Biodistribution, Mean, kidney ([2]; 6 H): 2.11 | Biodistribution, Mean, liver ([2]; 1 H): 3.86 | Biodistribution, Mean, liver ([2]; 3 H): 2.02 | Biodistribution, Mean, liver ([2]; 6 H): 1.54 | Biodistribution, Mean, liver ([2]; 24 H): 0.43 | Biodistribution, Mean, lungs ([2]; 1 H): 3.68 | Biodistribution, Mean, lungs ([2]; 3 H): 2.76 | Biodistribution, Mean, lungs ([2]; 6 H): 2.05 | Biodistribution, Mean, muscle ([2]; 1 H): 0.74 | Biodistribution, Mean, muscle ([2]; 3 H): 0.43 | Biodistribution, Mean, pancreas ([2]; 1 H): 2.39 | Biodistribution, Mean, spleen ([2]; 1 H): 2.83 | Biodistribution, Mean, spleen ([2]; 72 H): 1.62 | Biodistribution, Mean, thyroid ([2]; 1 H): 16.88 | Biodistribution, Mean, thyroid ([2]; 3 H): 35.71 | Biodistribution, Mean, thyroid ([2]; 6 H): 48.93 | Biodistribution, Mean, thyroid ([2]; 24 H): 88.65 | Biodistribution, Mean, thyroid ([2]; 72 H): 132.79 | Biodistribution, Mean, uvea ([2]; 1 H): 18.08 | Biodistribution, Mean, uvea ([2]; 3 H): 13.87 | Biodistribution, Mean, uvea ([2]; 6 H): 18.02 | Biodistribution, Mean, uvea ([2]; 24 H): 14.55 | Biodistribution, Mean, uvea ([2]; 72 H): 9.73
Compound: CCN(CC)CCNC(=O)c1cc2c(I)cccc2cn1 [compound 39, N-(2-diethylaminoethyl)-5-iodoisoquinoline-3-carboxamide dihydrochloride]
